≈ marks a conversion by molar mass, not a printed value. Where “and” joins values, the source holds several entries; their conditions need not be identical. Equal values may be shown once.
Tests used:
[1] = DNDI: Cytotoxicity against L929 mouse fibroblasts, CYTO-SP, 24 hour; format: toxicity, cell-based; conditions: mouse, L929 mouse fibroblasts
Trypanosoma brucei [2] = assay: DNDI: Inhibition of Human African Trypanosomiasis, Cross 22, in vitro; format: functional, organism-based
[3] = DNDI: Cytotoxicity against L929 mouse fibroblasts, 72 hour.; format: toxicity, cell-based; conditions: mouse, L929 mouse fibroblasts
Trypanosoma brucei [4] = assay: DNDI: Inhibition of Human African Trypanosomiasis, SBRI 427, in vitro; format: functional, organism-based
[5] = mouse, microsomes, 1 µM
Description: DNDI: in vitro intrinsic clearance in mouse liver microsomes at a concentration of 1uM

in vitro = conditions: mouse, liver microsomes, t (1 / 2)
Description: DNDI: half life in mouse liver microsomes at a concentration of 1uM

Trypanosoma brucei [6] = assay: DNDI: Mean survival time in days (MSD) of mice after intraperitoneal injection of Human African Trypanosomiasis (HAT), EATRO 110, in vivo at 20 mg/kg/day for 4 days.; format: functional, Mus musculus
Trypanosoma cruzi = assay: DNDI: Inhibition of Chagas Disease parasite Trypanosoma cruzi (Tulahuen LacZ, Clone C4), in vitro.; format: functional, organism-based
Plasmodium falciparum = assay: DNDI: Inhibition of the malaria parasite Plasmodium falciparum, in vitro; format: functional, organism-based; conditions: K1
[7] = DNDI: Cytotoxicity against L-6 rat myoblasts from skeletal muscle cells; format: toxicity, cell-based, L6; conditions: L-6 rat skeletal muscle myoblasts
[8] = test system: Trypanosoma brucei rhodesiense; assay: DNDI: Inhibition of Human African Trypanosomiasis (HAT), STIB 900, in vitro; format: functional, organism-based
Leishmania donovani = assay: DNDI: Inhibition of formation of Leishmania donovani (strain MHOM/ET/67/L82) axenic amastigotes, in vitro.; format: functional, organism-based
[9] = DNDI: Lipophilicity measured in Chromatographic hydrophobicity index (CHI) assay, pH 7.4; format: physicochemical; conditions: buffer
[10] = DNDI: Solubility in phosphate buffered saline at pH7.4 measured by nephelometry at room temperature (NEPH-RT); format: physicochemical; conditions: pH 7.4
[11] = Trypanosoma brucei, SBRI 427, read-out: IC50

| SMILES | IC50 (Trypanosoma brucei [2]) [µg/mL] | IC50 (Trypanosoma brucei [4]; [11]) [µg/mL] | IC50 (Trypanosoma brucei [4]) | IC50 (Trypanosoma cruzi) [µg/mL] | IC50 (Plasmodium falciparum) [µg/mL] | IC50 [8] [µg/mL] | IC50 (Leishmania donovani) [µg/mL] | IC50 at 24 h [1] [µg/mL] | IC50 at 72 h [3] [µg/mL] | CLint in vitro [5] [µL/min/mg] | half-life at 1 µM (in vitro) [min] | MSD (Trypanosoma brucei [6]) [days] | IC50 [7] [µg/mL] | chromatographic logD [9] | solubility kinetic [10] [µM] |
| --- | --- | --- | --- | --- | --- | --- | --- | --- | --- | --- | --- | --- | --- | --- | --- |
| Cc1ccc(/C(=N/O)NC2CCCCC2)c(Oc2ccc(C(C)(C)C)cc2)n1 | – | > 5 | – | – | – | – | – | – | 4.06 (≈ 10.6 µM) | 98.83 | 8.61 | 4.5 | – | – | – |
| CCc1ccc(N/C(=N/O)c2ccc(OC)cc2)cc1 | – | 3.69 (≈ 13.6 µM) | – | – | – | – | – | > 50 | – | – | – | 4.5 | – | – | – |
| CC(C)(C)c1ccc(Oc2ncccc2/C(=N/O)Nc2cccc(F)c2)cc1 | – | > 5 | – | – | – | – | – | – | 3.39 (≈ 8.93 µM) | 35.83 | 23.7 | 4 | – | – | – |
| CCc1ccc(Oc2ncccc2/C(=N\O)NC2CCCCC2O)cc1 (stereo not drawn) | – | > 5 | – | – | – | – | – | – | > 10 | 51 | 17 | 4 | – | – | – |
| CCCCOc1ccc(-c2nc(CN[C@@H]3C[C@@H]4C[C@H]([C@H]3C)C4(C)C)co2)cc1 | 0.58 (≈ 1.52 µM) | – | 0.61 µg/mL and 0.72 µg/mL and 0.29 µg/mL | – | – | – | – | 8.05 (≈ 21 µM) | < 3.13 | – | – | – | – | – | – |
| CCc1ccc(Oc2ncccc2/C(=N\O)NC2CCCC[C@@H]2N)cc1 (stereo partly drawn) | – | > 5 | – | – | – | – | – | – | > 10 | 7 | 116 | 4 | – | – | – |
| O/N=C(\NCC1CCCCC1)c1ccccc1-c1ccccc1 | – | 2.15 (≈ 6.97 µM) | – | 3.63 (≈ 11.8 µM) | 2.7 (≈ 8.75 µM) | 18.7 (≈ 60.6 µM) | 4.75 (≈ 15.4 µM) | 16.1 (≈ 52.1 µM) | 2.72 (≈ 8.82 µM) | – | – | – | 14.8 (≈ 47.9 µM) | – | – |
| COc1ccc(CNC(CCc2ccccc2)c2nc(Cc3ccccc3)c(N3CCCCC3)o2)cc1OC (stereo not drawn) | – | 2.54 (≈ 4.83 µM) | – | – | – | – | – | – | > 10 | 354 | 2 | 4 | – | > 5.2 | 3 (≈ 1.58 µg/mL) |
| CC1CCC(N/C(=N\O)c2cccnc2Oc2ccccc2Cl)CC1 (stereo not drawn) | – | – | – | 4.72 (≈ 13.1 µM) | 4.4 (≈ 12.2 µM) | 20.9 (≈ 58.1 µM) | 6.18 (≈ 17.2 µM) | > 50 | > 10 | – | – | – | 50.2 (≈ 139 µM) | – | – |
| CCCCOc1ccc(-c2nc(CNC3[C@H]4C[C@@H]5C[C@@H](C[C@H]3C5)C4)co2)cc1 (stereo partly drawn) | 0.34 (≈ 0.893 µM) | 0.36 (≈ 0.946 µM) | 0.37 µg/mL and 0.29 µg/mL | – | – | – | – | 15.9 (≈ 41.8 µM) | < 3.13 | – | – | – | – | – | – |

Now from value to compound, other results behind:

| IC50 (Trypanosoma brucei [2]) [µg/mL] | IC50 (Trypanosoma brucei [4]; [11]) [µg/mL] | IC50 (Trypanosoma brucei [4]) | IC50 (Trypanosoma cruzi) [µg/mL] | IC50 (Plasmodium falciparum) [µg/mL] | IC50 [8] [µg/mL] | IC50 (Leishmania donovani) [µg/mL] | SMILES | IC50 at 24 h [1] [µg/mL] | IC50 at 72 h [3] [µg/mL] | CLint in vitro [5] [µL/min/mg] | half-life at 1 µM (in vitro) [min] | MSD (Trypanosoma brucei [6]) [days] | IC50 [7] [µg/mL] | chromatographic logD [9] | solubility kinetic [10] [µM] |
| --- | --- | --- | --- | --- | --- | --- | --- | --- | --- | --- | --- | --- | --- | --- | --- |
| > 5 | > 5 | – | – | – | – | – | CC1(C)[C@H]2CC[C@@H](CNCc3coc(-c4ccc(Br)cc4)n3)[C@@H]1C2 | > 50 | 50 (≈ 128 µM) | – | – | – | – | – | – |
| 1.45 (≈ 4.76 µM) | 1.27 (≈ 4.17 µM) | 1.61 µg/mL and 1.55 µg/mL | – | – | – | – | Clc1ccc(-c2nc(CNC3CCCCCC3)co2)cc1 | 26.6 (≈ 87.3 µM) | 3.43 (≈ 11.3 µM) | – | – | – | – | – | – |
| > 5 | > 5 | – | – | – | – | – | CC1CC(NCc2coc(-c3ccc(C(C)(C)C)cc3)n2)CC(C)(C)C1 (stereo not drawn) | > 50 | > 50 | – | – | – | – | – | – |
| – | 1.19 (≈ 4.21 µM) | – | 7.73 (≈ 27.4 µM) | 2.18 (≈ 7.72 µM) | 8.99 (≈ 31.8 µM) | 13.3 (≈ 47 µM) | CCC(CC)N/C(=N\O)c1ccccc1-c1ccccc1 | > 50 | > 10 | – | – | – | 17.2 (≈ 60.9 µM) | – | – |
| – | > 5 | – | > 30 | > 5 | 25.9 (≈ 115 µM) | 13.6 (≈ 60.8 µM) | O/N=C(\NC1CCCCC1)c1ccsc1 | > 50 | > 10 | – | – | – | > 83.5 | – | – |
| 0.83 (≈ 2.28 µM) | – | 0.87 µg/mL and 0.51 µg/mL and 1.1 µg/mL | – | – | – | – | CC(C)(C)c1ccc(-c2nc(CNC3[C@H]4C[C@@H]5C[C@@H](C[C@H]3C5)C4)co2)cc1 (stereo partly drawn) | > 50 | 13 (≈ 35.8 µM) | 14 | 59 | – | – | – | – |
| 0.92 (≈ 2.39 µM) | 1.18 (≈ 3.07 µM) | 0.7 µg/mL and 0.85 µg/mL | – | – | – | – | c1ccc(-c2ccc(-c3nc(CNC4[C@H]5C[C@@H]6C[C@@H](C[C@H]4C6)C5)co3)cc2)cc1 (stereo partly drawn) | > 50 | 9.8 (≈ 25.5 µM) | – | – | – | – | – | – |
| 0.49 (≈ 1.49 µM) | – | 0.86 µg/mL and 0.42 µg/mL | 2.8 (≈ 8.52 µM) | 0.694 (≈ 2.11 µM) | 0.302 (≈ 0.919 µM) | 6.61 (≈ 20.1 µM) | CCCCCC(C)NCc1coc(-c2ccc(C(C)(C)C)cc2)n1 (stereo not drawn) | 9 (≈ 27.4 µM) | 1.36 (≈ 4.14 µM) | 17 | 51 | – | 3.25 (≈ 9.89 µM) | – | – |
| – | 4.72 (≈ 17.3 µM) | – | 14.6 (≈ 53.6 µM) | 1.21 (≈ 4.44 µM) | 0.823 (≈ 3.02 µM) | 29.5 (≈ 108 µM) | CCCCCC(C)NCc1coc(-c2ccccc2)n1 (stereo not drawn) | 32 (≈ 117 µM) | > 10 | – | – | – | 14.3 (≈ 52.4 µM) | – | – |
| 0.37 (≈ 0.957 µM) | 0.24 (≈ 0.621 µM) | 0.19 µg/mL (≈ 0.492 µM) | – | – | – | – | C[C@@H]1[C@H]2C[C@@H](C[C@H]1NCc1coc(-c3ccc(-c4ccccc4)cc3)n1)C2(C)C | 8.15 (≈ 21.1 µM) | < 3.13 | – | – | – | – | – | – |
